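Five concentrations, 48 hours, 96-well plates. GI50: concentration for 50% inhibition of growth. TGI: concentration producing complete growth inhibition.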
How the values were obtained:
Assay in all cases: NCI tumour cell line growth inhibition, 48 h
[1] = test system: 786-0 renal
[2] = test system: A498 renal
[3] = test system: A549 NSCLC
[4] = test system: ACHN renal
[5] = test system: BT-549 breast
[6] = test system: CAKI-1 renal
[7] = test system: CCRF-CEM leukemia
[8] = test system: COLO 205 colon
[9] = test system: DU-145 prostate
[10] = test system: EKVX NSCLC
[11] = test system: HCC-2998 colon
[12] = test system: HCT-116 colon
[13] = test system: HCT-15 colon
[14] = test system: HL-60(TB) leukemia
[15] = test system: HOP-62 NSCLC
[16] = test system: HOP-92 NSCLC
[17] = test system: HS 578T breast
[18] = test system: HT29 colon
[19] = test system: IGROV1 ovarian
[20] = test system: K-562 leukemia
[21] = test system: KM12 colon
[22] = test system: LOX IMVI melanoma
[23] = test system: M14 melanoma
[24] = test system: MALME-3M melanoma
[25] = test system: MCF7 breast
[26] = test system: MDA-MB-231 breast
[27] = test system: MDA-MB-435
[28] = test system: MOLT-4 leukemia
[29] = test system: NCI-H226 lung
[30] = test system: NCI-H23 lung
[31] = test system: NCI-H460 lung
[32] = test system: NCI-H522 lung
[33] = test system: NCI/ADR-RES ovarian
[34] = test system: OVCAR-3 ovarian
[35] = test system: OVCAR-4 ovarian
[36] = test system: OVCAR-5 ovarian
[37] = test system: OVCAR-8 ovarian
[38] = test system: PC-3 prostate
[39] = test system: RPMI-8226 leukemia
[40] = test system: RXF 393 renal
[41] = test system: SF-268 CNS
[42] = test system: SF-295 CNS
[43] = test system: SF-539 CNS
[44] = test system: SK-MEL-2 melanoma
[45] = test system: SK-MEL-28 melanoma
[46] = test system: SK-MEL-5 melanoma
[47] = test system: SK-OV-3 ovarian
[48] = test system: SN12C renal
[49] = test system: SNB-19 CNS
[50] = test system: SNB-75 CNS
[51] = test system: SR leukemia
[52] = test system: SW-620 colon
[53] = test system: T-47D breast
[54] = test system: TK-10 renal
[55] = test system: U251 CNS
[56] = test system: UACC-257 melanoma
[57] = test system: UACC-62 melanoma
[58] = test system: UO-31 renal

O=C(Cc1ccc(/C=C/C(=O)c2ncc[nH]2)cc1)Nc1ccc(Br)cc1
GI50 [1]: 0.946 µM | TGI [1]: 3.13 µM | GI50 [2]: 4.72 µM | TGI [2]: 13.7 µM | GI50 [3]: 6.06 µM | TGI [3]: > 16.7 µM | GI50 [4]: 2.72 µM | TGI [4]: 5.25 µM | GI50 [5]: 1.55 µM | TGI [5]: 4.04 µM | GI50 [6]: 2.92 µM | TGI [6]: 8.48 µM | GI50 [7]: 0.759 µM | TGI [7]: > 16.7 µM | GI50 [8]: 2.57 µM | TGI [8]: 5.74 µM | GI50 [9]: 1.1 µM | TGI [9]: 4.89 µM | GI50 [10]: 4.58 µM | TGI [10]: > 16.7 µM | GI50 [11]: 2.46 µM | TGI [11]: 4.96 µM | GI50 [12]: 0.847 µM | TGI [12]: 2.54 µM | GI50 [13]: 0.787 µM | TGI [13]: 8.83 µM | GI50 [14]: 2.78 µM | TGI [14]: 13.9 µM | GI50 [15]: 2.49 µM | TGI [15]: 5.73 µM | GI50 [16]: 6.74 µM | TGI [16]: > 16.7 µM | GI50 [17]: 7.94 µM | TGI [17]: > 16.7 µM | GI50 [18]: 0.726 µM | TGI [18]: 3.71 µM | GI50 [19]: 2.37 µM | TGI [19]: 7.22 µM | GI50 [20]: 0.745 µM | TGI [20]: > 16.7 µM | GI50 [21]: 0.864 µM | TGI [21]: 3.13 µM | GI50 [22]: 0.889 µM | TGI [22]: 3.12 µM | GI50 [23]: 3.11 µM | TGI [23]: 7.83 µM | GI50 [24]: 3.12 µM | TGI [24]: 7.69 µM | GI50 [25]: 0.569 µM | TGI [25]: > 16.7 µM | GI50 [26]: 3.97 µM | TGI [26]: 13.4 µM | GI50 [27]: 3.7 µM | TGI [27]: 15.6 µM | GI50 [28]: 4.02 µM | TGI [28]: > 16.7 µM | GI50 [29]: 3.31 µM | TGI [29]: 10.1 µM | GI50 [30]: 2.2 µM | TGI [30]: 8.5 µM | GI50 [31]: 2.77 µM | TGI [31]: 8.66 µM | GI50 [32]: 2.76 µM | TGI [32]: 7.34 µM | GI50 [33]: 4.61 µM | TGI [33]: > 16.7 µM | GI50 [34]: 0.85 µM | TGI [34]: 3.88 µM | GI50 [35]: 3.42 µM | TGI [35]: > 16.7 µM | GI50 [36]: 2.24 µM | TGI [36]: 5.83 µM | GI50 [37]: 4.04 µM | TGI [37]: > 16.7 µM | GI50 [38]: 2.51 µM | TGI [38]: 10.2 µM | GI50 [39]: 0.705 µM | TGI [39]: 4.06 µM | GI50 [40]: 2.4 µM | TGI [40]: 4.82 µM | GI50 [41]: 1.83 µM | TGI [41]: > 16.7 µM | GI50 [42]: 2.09 µM | TGI [42]: 6.19 µM | GI50 [43]: 1.47 µM | TGI [43]: 3.56 µM | GI50 [44]: > 16.7 µM | TGI [44]: > 16.7 µM | GI50 [45]: 3.07 µM | TGI [45]: 6.65 µM | GI50 [46]: 5.77 µM | TGI [46]: > 16.7 µM | GI50 [47]: 8.2 µM | TGI [47]: > 16.7 µM | GI50 [48]: 2.59 µM | TGI [48]: 6.93 µM | GI50 [49]: 2.54 µM | TGI [49]: 7.99 µM | GI50 [50]: 2.37 µM | TGI [50]: > 16.7 µM | GI50 [51]: 0.608 µM | TGI [51]: 12.9 µM | GI50 [52]: 0.873 µM | TGI [52]: 4.49 µM | GI50 [53]: 3.82 µM | TGI [53]: > 16.7 µM | GI50 [54]: 4.31 µM | TGI [54]: 12.6 µM | GI50 [55]: 0.704 µM | TGI [55]: 2.56 µM | GI50 [56]: 6.64 µM | TGI [56]: > 16.7 µM | GI50 [57]: 2.85 µM | TGI [57]: 6.11 µM | GI50 [58]: 1.79 µM | TGI [58]: 3.86 µM

— PubChem BioAssay (NCI)
